Assays:
[1] = system: antibodies in sera from SARS patients (sera 1a, 1b, 2, 6, 37, 62, London, SARS-yellow, SARS-green); type: binding, human; design: Binding of serum 6 to linear peptides of protein X1 of SARS-CoV Urbani / Binding of serum 37 to linear peptides of protein X1 of SARS-CoV Urbani / Binding of serum 6 to looped/cyclic peptide (PEPSCAN-ELISA) / Binding of serum 37 to looped/cyclic peptide (PEPSCAN-ELISA) / Binding of serum 37 to looped/cyclic peptides of protein X1 of SARS-CoV Urbani / Binding of serum 6 to linear peptides of protein X2 / Binding of serum 37 to linear peptides of protein X2 / Binding of serum 37 to looped/cyclic peptides of protein X2 of SARS-CoV Urbani / Binding of serum 6 to linear peptides of protein M of SARS-CoV Urbani / Binding of serum 37 to linear peptides of protein M of SARS-CoV Urbani / Binding of serum 6 to looped/cyclic peptides of protein M of SARS-CoV Urbani / Binding of serum 37 to looped/cyclic peptides of protein M of SARS-CoV Urbani / Binding of serum 6 to linear peptides of protein X3 of SARS-CoV Urbani / Binding of serum 37 to linear peptides of protein X3 of SARS-CoV Urbani / Binding of serum 37 to looped/cyclic peptides of protein X3 of SARS-CoV Urbani / Binding of serum 6 to linear peptides of protein X4 of SARS-CoV Urbani / Binding of serum 37 to linear peptides of protein X4 of SARS-CoV Urbani / Binding of serum 37 to looped/cyclic peptides of protein X4 of SARS-CoV Urbani / Binding of serum 6 to linear peptides of protein X5 of SARS-CoV Urbani / Binding of serum 37 to linear peptides of protein X5 of SARS-CoV Urbani / Binding of serum 37 to looped/cyclic peptides of protein X5 of SARS-CoV Urbani / Binding of serum 6 to linear peptides of protein N of SARS-CoV Urbani / Binding of serum 37 to linear peptides of protein N of SARS-CoV Urbani / Binding of serum 6 to linear peptide (PEPSCAN-ELISA) / Binding of serum 1a to looped/cyclic peptides of protein N of SARS-CoV Urbani / Binding of serum 1b to looped/cyclic peptides of protein N of SARS-CoV Urbani / Binding of serum 2 to looped/cyclic peptides of protein N of SARS-CoV Urbani / Binding of serum 6 to looped/cyclic peptides of protein N of SARS-CoV Urbani / Binding of serum 37 to looped/cyclic peptides of protein N of SARS-CoV Urbani / Binding of serum 62 to looped/cyclic peptides of protein N of SARS-CoV Urbani / Binding of serum London to looped/cyclic peptides of protein N of SARS-CoV Urbani / Binding of serum SARS-green to looped/cyclic peptides of protein N of SARS-CoV Urbani: unit not given here
[2] = system: control sera (pooled serum of ten healthy LUMC hospital workers; commercial negative donor pooled serum from the Dutch bloodbank); type: binding, human; design: Binding of Control serum LUMC to linear peptides / Binding of Control serum Blood-bank to linear peptides / Binding of Control serum LUMC to looped peptides / Binding of Control Serum Blood-Bank to Looped peptides / Binding of Control serum LUMC to linear peptides of the protein M of SARS-CoV Urbani / Binding of Control serum Blood-bank to linear peptides of the protein M of SARS-CoV Urbani / Binding of Control serum LUMC to looped peptides of the protein M of SARS-CoV Urbani / Binding of Control Serum Blood-Bank to Looped peptides of the protein M of SARS-CoV Urbani: unit not given here
[3] = system: rabbit serum obtained by immunizing a rabbit with the SARS-CoV strain Frankfurt 1; type: binding; design: Binding of a rabbit serum to linear peptides / Binding of a rabbit serum to looped peptides / Rabbit serum linear peptides / Rabbit serum looped peptides / Binding of a rabbit serum to linear peptides of protein N of SARS-CoV Urbani (Rabbit serum linear peptides) / Binding of a rabbit serum to looped/cyclic peptides of protein N of SARS-CoV Urbani (Rabbit serum looped peptides): unit not given here
[4] = system: recombinant human anti-SARS-CoV antibody 03-018; type: binding; design: Binding of antibody 03-018 to linear peptides of the N protein of SARS-CoV Urbani / Binding of antibody 03-018 to looped/cyclic peptides of the N protein of SARS-CoV Urbani: unit not given here

GSQASSRSSSRSRGN
Binding of serum 1a to linear peptide (PEPSCAN-ELISA) [1]: 0.3
Binding of serum 1a to looped/cyclic peptides of protein N of SARS-CoV Urbani [1]: 0.4
Binding of serum 1b to linear peptide (PEPSCAN-ELISA) [1]: 0.1
Binding of serum 1b to looped/cyclic peptides of protein N of SARS-CoV Urbani [1]: 0.2
Binding of serum 2 to linear peptide (PEPSCAN-ELISA) [1]: 0.4
Binding of serum 2 to looped/cyclic peptides of protein N of SARS-CoV Urbani [1]: 0.4
Binding of serum 6 to linear peptide (PEPSCAN-ELISA) [1]: 0.4
Binding of serum 6 to looped/cyclic peptides of protein N of SARS-CoV Urbani [1]: 0.3
Binding of serum 37 to linear peptide (PEPSCAN-ELISA) [1]: 0.7
Binding of serum 37 to looped/cyclic peptides of protein N of SARS-CoV Urbani [1]: 0.7
Binding of serum 62 to linear peptide (PEPSCAN-ELISA) [1]: 0.6
Binding of serum 62 to looped/cyclic peptides of protein N of SARS-CoV Urbani [1]: 0.6
Binding of serum London to linear peptide (PEPSCAN-ELISA) [1]: 0.6
Binding of serum London to looped/cyclic peptides of protein N of SARS-CoV Urbani [1]: 0.5
Binding of serum SARS-green to linear peptide (PEPSCAN-ELISA) [1]: 0.3
Binding of serum SARS-green to looped/cyclic peptides of protein N of SARS-CoV Urbani [1]: 0.1
Binding of serum SARS-yellow to linear peptide (PEPSCAN-ELISA) [1]: 0.7
Binding of serum SARS-yellow to looped/cyclic peptides of protein N of SARS-CoV Urbani [1]: 0.5
Binding of Control Serum Blood-Bank to Looped peptides [2]: 0.6
Binding of Control serum Blood-bank to linear peptides [2]: 0.8
Binding of Control serum LUMC to linear peptides [2]: 0.8
Binding of Control serum LUMC to looped peptides [2]: 0.6
Binding of a rabbit serum to linear peptides of protein N of SARS-CoV Urbani (Rabbit serum linear peptides) [3]: 0.2
Binding of a rabbit serum to looped/cyclic peptides of protein N of SARS-CoV Urbani (Rabbit serum looped peptides) [3]: 0.7
Binding of antibody 03-018 to linear peptides of the N protein of SARS-CoV Urbani [4]: 0.1
Binding of antibody 03-018 to looped/cyclic peptides of the N protein of SARS-CoV Urbani [4]: 0.2

GTWLTYHGAIKLDDK
Binding of serum 1a to linear peptides of protein N of SARS-CoV Urbani [1]: 0.2
Binding of serum 1a to looped/cyclic peptides of protein N of SARS-CoV Urbani [1]: 0.2
Binding of serum 1b to linear peptides of protein N of SARS-CoV Urbani [1]: 0.1
Binding of serum 1b to looped/cyclic peptides of protein N of SARS-CoV Urbani [1]: 0.1
Binding of serum 2 to linear peptides of protein N of SARS-CoV Urbani [1]: 0.2
Binding of serum 2 to looped/cyclic peptides of protein N of SARS-CoV Urbani [1]: 0.2
Binding of serum 6 to linear peptides of protein N of SARS-CoV Urbani [1]: 0.1
Binding of serum 6 to looped/cyclic peptides of protein N of SARS-CoV Urbani [1]: 0.1
Binding of serum 37 to linear peptides of protein N of SARS-CoV Urbani [1]: 0.7
Binding of serum 37 to looped/cyclic peptides of protein N of SARS-CoV Urbani [1]: 0.4
Binding of serum 62 to linear peptides of protein N of SARS-CoV Urbani [1]: 0.7
Binding of serum 62 to looped/cyclic peptides of protein N of SARS-CoV Urbani [1]: 0.3
Binding of serum London to linear peptides of protein N of SARS-CoV Urbani [1]: 0.5
Binding of serum London to looped/cyclic peptides of protein N of SARS-CoV Urbani [1]: 0.3
Binding of serum SARS-green to linear peptides of protein N of SARS-CoV Urbani [1]: 0.4
Binding of serum SARS-green to looped/cyclic peptides of protein N of SARS-CoV Urbani [1]: 0.1
Binding of serum SARS-yellow to linear peptides of protein N of SARS-CoV Urbani [1]: 0.7
Binding of serum SARS-yellow to looped/cyclic peptides of protein N of SARS-CoV Urbani [1]: 0.5
Control Serum Blood-Bank Looped peptides [2]: 0.4
Control serum Blood-bank linear peptides [2]: 0.6
Control serum LUMC linear peptides [2]: 0.6
Control serum LUMC looped peptides [2]: 0.4
Binding of a rabbit serum to linear peptides of protein N of SARS-CoV Urbani (Rabbit serum linear peptides) [3]: 0.1
Binding of a rabbit serum to looped/cyclic peptides of protein N of SARS-CoV Urbani (Rabbit serum looped peptides) [3]: 0.2
Binding of antibody 03-018 to linear peptides of the N protein of SARS-CoV Urbani [4]: 0.1
Binding of antibody 03-018 to looped/cyclic peptides of the N protein of SARS-CoV Urbani [4]: 0.2

GVPINTNSGPDDQIG
Binding of serum 1a to linear peptides of protein N of SARS-CoV Urbani [1]: 0.3
Binding of serum 1a to looped/cyclic peptides of protein N of SARS-CoV Urbani [1]: 0.3
Binding of serum 1b to linear peptides of protein N of SARS-CoV Urbani [1]: 0.1
Binding of serum 1b to looped/cyclic peptides of protein N of SARS-CoV Urbani [1]: 0.2
Binding of serum 2 to linear peptides of protein N of SARS-CoV Urbani [1]: 0.2
Binding of serum 2 to looped/cyclic peptides of protein N of SARS-CoV Urbani [1]: 0.2
Binding of serum 6 to linear peptides of protein N of SARS-CoV Urbani [1]: 0.2
Binding of serum 6 to looped/cyclic peptides of protein N of SARS-CoV Urbani [1]: 0.1
Binding of serum 37 to linear peptides of protein N of SARS-CoV Urbani [1]: 0.8
Binding of serum 37 to looped/cyclic peptides of protein N of SARS-CoV Urbani [1]: 0.5
Binding of serum 62 to linear peptides of protein N of SARS-CoV Urbani [1]: 0.6
Binding of serum 62 to looped/cyclic peptides of protein N of SARS-CoV Urbani [1]: 0.3
Binding of serum London to linear peptides of protein N of SARS-CoV Urbani [1]: 0.5
Binding of serum London to looped/cyclic peptides of protein N of SARS-CoV Urbani [1]: 0.3
Binding of serum SARS-green to linear peptides of protein N of SARS-CoV Urbani [1]: 0.5
Binding of serum SARS-green to looped/cyclic peptides of protein N of SARS-CoV Urbani [1]: 0.3
Binding of serum SARS-yellow to linear peptides of protein N of SARS-CoV Urbani [1]: 0.5
Binding of serum SARS-yellow to looped/cyclic peptides of protein N of SARS-CoV Urbani [1]: 0.2
Binding of Control Serum Blood-Bank to Looped peptides [2]: 0.4
Binding of Control serum Blood-bank to linear peptides [2]: 0.7
Binding of Control serum LUMC to linear peptides [2]: 0.7
Binding of Control serum LUMC to looped peptides [2]: 0.4
Binding of a rabbit serum to linear peptides of protein N of SARS-CoV Urbani (Rabbit serum linear peptides) [3]: 0.1
Binding of a rabbit serum to looped/cyclic peptides of protein N of SARS-CoV Urbani (Rabbit serum looped peptides) [3]: 0.2
Binding of antibody 03-018 to linear peptides of the N protein of SARS-CoV Urbani [4]: 0.1
Binding of antibody 03-018 to looped/cyclic peptides of the N protein of SARS-CoV Urbani [4]: 0.2

GYYRRATRRVRGGDG
Binding of serum 1a to linear peptides of protein N of SARS-CoV Urbani [1]: 0.3
Binding of serum 1a to looped/cyclic peptides of protein N of SARS-CoV Urbani [1]: 0.3
Binding of serum 1b to linear peptides of protein N of SARS-CoV Urbani [1]: 0.1
Binding of serum 1b to looped/cyclic peptides of protein N of SARS-CoV Urbani [1]: 0.1
Binding of serum 2 to linear peptides of protein N of SARS-CoV Urbani [1]: 0.1
Binding of serum 2 to looped/cyclic peptides of protein N of SARS-CoV Urbani [1]: 0.4
Binding of serum 6 to linear peptides of protein N of SARS-CoV Urbani [1]: 0.2
Binding of serum 6 to looped/cyclic peptides of protein N of SARS-CoV Urbani [1]: 0.2
Binding of serum 37 to linear peptides of protein N of SARS-CoV Urbani [1]: 0.3
Binding of serum 37 to looped/cyclic peptides of protein N of SARS-CoV Urbani [1]: 0.5
Binding of serum 62 to linear peptides of protein N of SARS-CoV Urbani [1]: 0.4
Binding of serum 62 to looped/cyclic peptides of protein N of SARS-CoV Urbani [1]: 0.4
Binding of serum London to linear peptides of protein N of SARS-CoV Urbani [1]: 0.4
Binding of serum London to looped/cyclic peptides of protein N of SARS-CoV Urbani [1]: 0.3
Binding of serum SARS-green to linear peptides of protein N of SARS-CoV Urbani [1]: 0.2
Binding of serum SARS-green to looped/cyclic peptides of protein N of SARS-CoV Urbani [1]: 0.2
Binding of serum SARS-yellow to linear peptides of protein N of SARS-CoV Urbani [1]: 0.6
Binding of serum SARS-yellow to looped/cyclic peptides of protein N of SARS-CoV Urbani [1]: 0.2
Binding of Control Serum Blood-Bank to Looped peptides [2]: 0.6
Binding of Control serum Blood-bank to linear peptides [2]: 0.6
Binding of Control serum LUMC to linear peptides [2]: 0.6
Binding of Control serum LUMC to looped peptides [2]: 0.5
Recognition of the peptide by the rabbit serum [3]: recognized
Binding of antibody 03-018 to linear peptides of the N protein of SARS-CoV Urbani [4]: 0.1
Binding of antibody 03-018 to looped/cyclic peptides of the N protein of SARS-CoV Urbani [4]: 0.2

Source: patent US20070128217A1 (priority 2003, published 2007)
